Test results taken from US8501214B2, “Hydrophilic foam and pharmaceutical dosage form employing the same” (priority 2007, dated 2013).
Read-outs that look alike come from different tables or passages of the source.

Assays:
[1] = Solvent/water partition coefficient analysis (1-Octanol/water); assay type: physicochemical; details: for logP: logarithm of the ratio of 1-Octanol to water, read-out: Partition coefficient [log Poct/wat]
Description: Solvent/water partition coefficient analysis was conducted to determine the solvent/water partition coefficient. Various solvent were used in the experiments; yet, only the 1-Octanol/water partition coefficients of the active agents described herein above are summarized in Table 4. The 1-Octanol/water partition coefficient is the logarithm of the ratio of 1-Octanol to water and can be expressed as [log Poct/wat].

[2] = Transmembrane penetration analysis; assay type: in vitro ADME, swine; details: for True Value Concentration (completely penetrated active agent): 0.25 mL gel admixed with 5.5 mL saline; for Penetration Ratio: relative to true value
Source text: The solution was admixed with the aquagel or O/W gel described hereinabove to afford an active agent-containing gel. In the comparative example, commercially available vaseline ointment was admixed with heptane to form vaseline gel, and the solution was also admixed with the vaseline gel.
In the transmembrane penetration analysis, swine endometrium was used as the membrane. The swine endometrium of suitable size was disposed between an upper container and a lower container. The lower container was filled with physiologic saline and debubbled. […] The pipetted sample was analyzed with HPLC-PDA system.
In addition, about 0.25 mL of each gel was admixed with about 5.5 mL of saline. The admixture was extracted, filtered through a filter film (0.45 μm) and then analyzes by HPLE-PDA. The results (referred to as the “true value” hereinafter) thus obtained were regarded as the amount of a completely penetrated active agent present in the lower container.

[3] = Comparative Example D (vaseline gel)
[4] = Working Example 3 (aqua gel), 1 hr
[5] = Working Example 3 (aqua gel), 3 hr
[6] = Working Example 3 (aqua gel), 5 hr
[7] = Working Example 3 (aqua gel), 21 hr
[8] = Working Example 3 (aqua gel), 24 hr
[9] = Working Example 4 (O/W gel), 21 hr
[10] = Working Example 4 (O/W gel), 24 hr
[11] = Working Example 4 (O/W gel), 26 hr

In the case of `Cc1ncc([N+](=O)[O-])n1CCO` [Metronidazole (MTZ), Metronidazole], the logP ([1]; 1-octanol/water) is reported as 0.05, the “True Value Concentration (completely penetrated active agent)” value (“True Value Concentration” below) [2, 3] is reported as 0.1563 mg/mL and the “Concentration in lower container” value ([2]; Comparative Example D (vaseline gel), 3 hr) is reported as 460 ng/mL. For the same compound, the “Concentration in lower container” value ([2]; Comparative Example D (vaseline gel), 5 hr) was 590 ng/mL, the “Concentration in lower container” value ([2]; Comparative Example D (vaseline gel), 10.5 hr) was 960 ng/mL and the “Concentration in lower container” value ([2]; Comparative Example D (vaseline gel), 24 hr) was 1740 ng/mL. For the same compound, the “Concentration in lower container” value ([2]; Comparative Example D (vaseline gel), 26 hr) was 1430 ng/mL, the “True Value Concentration” value ([2]; Working Example 3 (aqua gel)) was 0.09568 mg/mL and the “Concentration in lower container” value [2, 4] was 13200 ng/mL. The “Concentration in lower container” value [2, 5] was 31080 ng/mL, the “Concentration in lower container” value [2, 6] was 395900 ng/mL and the “Concentration in lower container” value [2, 7] was 635800 ng/mL. The “Concentration in lower container” value [2, 8] was 587100 ng/mL, the “Concentration in lower container” value ([2]; Working Example 3 (aqua gel), 26 hr) was 595100 ng/mL and the “True Value Concentration” value ([2]; Working Example 4 (O/W gel)) was 0.1433 mg/mL. For the same compound, the “Concentration in lower container” value [2, 9] was 6510 ng/mL, the “Concentration in lower container” value [2, 10] was 61670 ng/mL and the “Concentration in lower container” value [2, 11] was 81070 ng/mL.
With `O=c1cc(-c2ccccc2)oc2cc(O)c(O)c(O)c12` [Baicalein] the 1-Octanol/H2O ratio [1] was “Insoluble in water”.
With `CC(C)[C@]12O[C@H]1[C@@H]1O[C@]13[C@]1(O[C@H]1C[C@H]1C4=C(CC[C@@]13C)C(=O)OC4)[C@@H]2O` [Triptolide] the 1-Octanol/H2O ratio [1] was 54.13 and the logP [1] was 1.73.
In the case of `C[C@@H]1[C@H](O)[C@@H](C)/C=C/C=C/CC/C=C/C=C/C=C/C=C/C(O[C@H]2O[C@H](C)[C@@H](O)[C@H](N)[C@@H]2O)CC2O[C@](O)(CC(O)C(O)CCC(O)CC(O)CC(O)CC(=O)O[C@H]1C)CC(O)C2C(=O)O` (some centres unmarked) [Nystatin (NYS), Nystatin], the 1-Octanol/H2O ratio [1] is reported as 1.98, the “Partition coefficient [log Poct/wat]” value [1] is reported as 0.30 and the “True Value Concentration” value ([2]; Working Example 4 (O/W gel)) is reported as 0.06448 mg/mL. For the same compound, the “Concentration in lower container” value [2, 9] was 1930 ng/mL, the “Penetration Ratio” value [2, 9] was 2.99% and the “Concentration in lower container” value [2, 10] was 20720 ng/mL. For the same compound, the “Penetration Ratio” value [2, 10] was 32.14%, the “Concentration in lower container” value [2, 11] was 30070 ng/mL and the “Penetration Ratio” value [2, 11] was 46.64%.
In the case of `Nc1nc2c(ncn2COCCO)c(=O)[nH]1` [Acyclovir (ACY), Acyclovir], the logP ([1]; 1-octanol/water) is reported as -1.58, the “True Value Concentration” value [2, 3] is reported as 0.1865 mg/mL and the “True Value Concentration” value ([2]; Working Example 3 (aqua gel)) is reported as 0.09979 mg/mL. For the same compound, the “Concentration in lower container” value [2, 4] was 5970 ng/mL, the “Concentration in lower container” value [2, 5] was 21420 ng/mL and the “Concentration in lower container” value [2, 6] was 29640 ng/mL. For the same compound, the “Concentration in lower container” value [2, 7] was 62890 ng/mL, the “Concentration in lower container” value [2, 8] was 58630 ng/mL and the “True Value Concentration” value ([2]; Working Example 4 (O/W gel)) was 0.1375 mg/mL. The “Concentration in lower container” value [2, 9] was 2510 ng/mL, the “Concentration in lower container” value [2, 10] was 60500 ng/mL and the “Concentration in lower container” value [2, 11] was 83400 ng/mL.
For `O=c1ccc2ccc3occc3c2o1` [Isopsoralen], the 1-Octanol/H2O ratio [1] was 306.9 and the logP [1] was 2.49.
In the case of `O=C(O)c1cc(O)c(O)c(O)c1` [Gallic acid], the 1-Octanol/H2O ratio [1] is reported as 1.859 and the logP [1] is reported as 0.27.
In the case of `Clc1ccc(COC(Cn2ccnc2)c2ccc(Cl)cc2Cl)c(Cl)c1` (centres unmarked) [Miconazole nitrate(MIC), Miconazole nitrate], the “True Value Concentration” value ([2]; Working Example 4 (O/W gel)) is reported as 0.1401 mg/mL, the “Concentration in lower container” value [2, 9] is reported as 7060 ng/mL and the “Concentration in lower container” value [2, 10] is reported as 60660 ng/mL. The “Concentration in lower container” value [2, 11] was 82720 ng/mL.
